# According to patent publication US8912120B2, “Herbicidal compositions comprising 4-amino-3-chloro-5-fluoro-6-(4-chloro-2-fluoro-3-methoxyphenyl) pyridine-2-carboxylic acid or a derivative thereof and synthetic auxin herbicides” (Dow AgroSciences, LLC., priority 2012, dated 2014):
# Several values for one entry are separate records, joined by “and”; a condition that tells them apart may be missing. Equal values may be shown once. Read-outs that look alike come from different tables or passages of the source.
# Assays:
# LEFCH [1] = assay: Example II: in-water applied herbicidal mixtures, transplanted paddy rice, LEFCH; type: in vivo, Leptochloa chinensis (Chinese sprangletop); settings: for Visual Weed Control (%) - 21 DAA LEFCH Obs / Visual Weed Control (%) - 25 DAA LEFCH Obs: in-water application
# Procedure, shortened: (§1)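 Flooded-mud greenhouse setup with rice transplanted at the 2–3 leaf stage, 4 days before herbicides were added to the water layer by pipette; solvent content matched across all pots.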
# CYPRO = assay: Example II: in-water applied herbicidal mixtures, weed control in transplanted paddy rice (greenhouse), CYPRO; type: in vivo, Cyperus rotundus (purple nutsedge); settings: for Visual Weed Control (%) - 21 DAA CYPRO Obs / Visual Weed Control (%) - 22 DAA CYPRO Obs: in-water application; for Visual Weed Control (%) Obs: 20 DAA
# Protocol: (§2) The prepared mud was dispensed in 365 mL aliquots into 16-ounce (oz.) non-perforated plastic pots with a surface area of 86.59 square centimeters (cm^2) leaving a headspace of 3 centimeters (cm) in each pot Mud was allowed to dry overnight prior to planting or transplanting. Rice seeds were planted in Sun Gro MetroMix® 306 planting mixture, which typically has a pH of 6.0 to 6.8 and an organic matter content of about 30 percent, in plastic plug trays. Seedlings at the second or third leaf stage of growth were transplanted into 840 mL of mud contained in 32-oz. non-perforated plastic pots with a surface area of 86.59 cm^2 4 days prior to herbicide application. […] Nutrients were added as Osmocote® (19:6:12, N:P:K^+ minor nutrients) at 2 g per 16-oz. pot and 4 g per 32-oz. pot.
# (§3) Applications were made by injecting with a pipetter appropriate amounts of the application solutions, individually and sequentially, into the aqueous layer of the paddy. Control plants were treated in the same manner with the solvent blank. Applications were made so that all treated plant material received the same concentrations of acetone and crop oil concentrate.
# ECHCO = assay: Example I: postemergence foliar-applied herbicidal mixtures, direct seeded rice, ECHCO; settings: for Visual Weed Control (%) - 21 DAA ECHCO Obs: Fluroxypyr MHE 0 gae/ha
# DIGSA = assay: Example I: postemergence foliar-applied herbicidal mixtures, direct seeded rice, DIGSA
# CIRAR = assay: Example V: postemergence herbicidal activity of mixtures in forage crops, CIRAR; type: in vivo, Cirsium arvense (Canada thistle); settings: alone, foliar, approximately 21 days
# Protocol: Seeds or root cuttings of the desired test plant species were planted in Sun Gro MetroMix® 306 planting mixture, which typically has a pH of 6.0 to 6.8 and an organic matter content of about 30 percent, in plastic pots with a surface area of 126.6 square centimeters (cm^2). […] The plants were grown for 14-60 days in a greenhouse with an approximate 14 hour photoperiod which was maintained at approximately 28° C. during the day and 24° C. during the night.
# Spray solutions of the second herbicide or experimental compound mixtures were prepared by adding the stock solutions to the appropriate amount of dilution solution to form 12 mL spray solution with active ingredients in two-way combinations.
# IPOHE = assay: Example I: postemergence foliar-applied herbicidal mixtures, direct seeded rice, IPOHE; type: in vivo, Ipomoea hederacea (ivyleaf morningglory)
# Protocol: (§4) The soil matrix was contained in plastic pots with a volume of 1 quart and a surface area of 83.6 square centimeters (cm^2). […] The plants were grown for 8-22 days in a greenhouse with an approximate 14 h photoperiod which was maintained at about 29° C. during the day and 26° C. during the night. Nutrients (Peters Excel® 15-5-15 5-Ca 2-Mg and iron chelate) were applied in the irrigation solution as needed and water was added on a regular basis. Supplemental lighting was provided with overhead metal halide 1000-Watt lamps as necessary. The plants were employed for testing when they reached the first through fourth true leaf stage.
# (§5) Treatments consisted of the acid or esters of 4-amino-3-chloro-5-fluoro-6-(4-chloro-2-fluoro-3-methoxy-phenyl)pyridine-2-carboxylic acid (Compound A), each formulated as an SC (suspension concentrate), and various herbicidal components alone and in combination. Forms of compound A were applied on an acid equivalent basis.
# (§6) For treatments comprised of formulated compounds, measured amounts of compounds were placed individually in 25 mL glass vials and diluted in a volume of 1.25% (v/v) Agri-Dex® crop oil concentrated to obtain 12× stock solutions. […] Application solutions were prepared by adding an appropriate amount of each stock solution (e.g., 1 mL) and diluted to the appropriate final concentrations with the addition of 10 mL of an aqueous mixture of 1.25% (v/v) crop oil concentrate so that the final spray solutions contained 1.25+/−0.05% (v/v) crop oil concentrate.
# (§7) All stock solutions and applications solutions were visually inspected for compound compatibility prior to application. Spray solutions were applied to the plant material with an overhead Mandel track sprayer equipped with a 8002E nozzles calibrated to deliver 187 L/ha over an application area of 0.503 m^2 at a spray height of 18 to 20 inches (46 to 50 cm) above average plant canopy height. Control plants were sprayed in the same manner with the solvent blank.
# (§8) The treated plants and control plants were placed in a greenhouse as described above and watered by sub-irrigation to prevent wash-off of the test compounds. After approximately 3 weeks, the condition of the test plants as compared with that of the untreated plants was determined visually and scored on a scale of 0 to 100 percent where 0 corresponds to no injury or growth inhibition and 100 corresponds to complete kill.
# (§9) Colby's equation was used to determine the herbicidal effects expected from the mixtures (Colby, S. R. 1967. Calculation of the synergistic and antagonistic response of herbicide combinations. Weeds 15:20-22).
# (§10) The following equation was used to calculate the expected activity of mixtures containing two active ingredients, A and B: Expected=A+B−(A×B/100)
# (§11) A=observed efficacy of active ingredient A at the same concentration as used in the mixture.
# (§12) B=observed efficacy of active ingredient B at the same concentration as used in the mixture.
# CYPIR = assay: Example I: postemergence foliar-applied herbicidal mixtures, direct seeded rice, CYPIR; type: in vivo, Cyperus iria (rice flatsedge)
# Protocol: as §4, §5, §6, §7, §8, §9, §10, §11, §12
# ECHOR = assay: Example II: in-water applied herbicidal mixtures, transplanted paddy rice, ECHOR; type: in vivo, Echinochloa oryzoides (early watergrass); settings: for Visual Weed Control (%) - 20 DAA ECHOR Obs / Visual Weed Control (%) - 22 DAA ECHOR Obs: in-water application
# Procedure, shortened: as §1
# LEFCH [2] = assay: Example I: postemergence foliar-applied herbicidal mixtures, direct seeded rice, LEFCH; type: in vivo, Leptochloa chinensis (Chinese sprangletop)
# ECHCG [3] = assay: Example I: postemergence foliar-applied herbicidal mixtures, direct seeded rice, ECHCG
# Protocol: as §4, §5, §6, §7, §8, §9, §10, §11, §12
# ECHCG [4] = assay: Example II: in-water applied herbicidal mixtures, transplanted paddy rice, ECHCG; type: in vivo, Echinochloa crus-galli (barnyardgrass); settings: for Visual Weed Control (%) - 21 DAA ECHCG Obs / Visual Weed Control (%) - 22 DAA ECHCG Obs: in-water application
# Procedure, shortened: as §1
# SCPMA = assay: Example II: in-water applied herbicidal mixtures, transplanted paddy rice, SCPMA; type: in vivo
# Protocol: as §2, §3
smiles,measurement,setting,value
"COc1c(Cl)ccc(-c2nc(C(=O)OCc3ccccc3)c(Cl)c(N)c2F)c1F [Compound A Benzyl Ester, benzyl ester of 4-amino-3-chloro-5-fluoro-6-(4-chloro-2-fluoro-3-methoxy-phenyl)pyridine-2-carboxylic acid]",Visual Weed Control (%) - 21 DAA LEFCH Obs,LEFCH [1]; 4.38 gae/ha,0%
same,Visual Weed Control (%) - 21 DAA LEFCH Obs,LEFCH [1]; 8.75 gae/ha,0%
same,Visual Weed Control (%) - 25 DAA LEFCH Obs,LEFCH [1]; 8.75 gae/ha,50%
same,Visual Weed Control (%) - 21 DAA LEFCH Obs,LEFCH [1]; 17.5 gae/ha,0%
same,Visual Weed Control (%) - 25 DAA LEFCH Obs,LEFCH [1]; 17.5 gae/ha,90%
same,Visual Weed Control (%) Obs,"LEFCH [1]; 19 DAA, 35 gae/ha",80%
same,Visual Injury (%) Obs,"LEFCH [1]; 25 DAA, 8.75 gae/ha",50%
same,Visual Weed Control (%) Obs,"LEFCH [1]; 25 DAA, 8.75 gae/ha",50%
same,Visual Injury (%) Obs,"LEFCH [1]; 25 DAA, 17.5 gae/ha",90%
same,Visual Weed Control (%) Obs,"LEFCH [1]; 25 DAA, 17.5 gae/ha",90%
same,Visual Weed Control (%) - 21 DAA CYPRO Obs,CYPRO; 4.38 gae/ha,0%
same,Visual Weed Control (%) - 22 DAA CYPRO Obs,CYPRO; 4.38 gae/ha,90%
same,Visual Weed Control (%) - 21 DAA CYPRO Obs,CYPRO; 8.75 gae/ha,0%
same,Visual Weed Control (%) - 22 DAA CYPRO Obs,CYPRO; 8.75 gae/ha,70%
same,Visual Weed Control (%) Obs,CYPRO; 4.38 gae/ha,0%
same,Visual Weed Control (%) Obs,CYPRO; 8.75 gae/ha,0%
same,Visual Weed Control (%) - 20 DAA ECHCO Obs,ECHCO; 4.38 gae/ha,50%
same,Visual Weed Control (%) - 23 DAA ECHCO Obs,ECHCO; 4.38 gae/ha,40%
same,Visual Weed Control (%) - 20 DAA ECHCO Obs,ECHCO; 8.75 gae/ha,75%
same,Visual Weed Control (%) - 23 DAA ECHCO Obs,ECHCO; 8.75 gae/ha,40%
same,Visual Weed Control (%) - 23 DAA ECHCO Obs,ECHCO; 17.5 gae/ha,75%
same,Visual Weed Control (%) - 21 DAA ECHCO Obs,ECHCO; Compound A Benzyl Ester rate printed '—' (second line),75%
same,Visual Weed Control (%) - 21 DAA ECHCO Obs,ECHCO; Compound A Benzyl Ester rate printed '—',70%
same,Visual Weed Control (%) - 23 DAA DIGSA Obs,DIGSA; 4.38 gae/ha,0%
same,Visual Weed Control (%) - 23 DAA DIGSA Obs,DIGSA; 8.75 gae/ha,0%
same,Visual Weed Control (%) - 23 DAA DIGSA Obs,DIGSA; 17.5 gae/ha,15%
same,Visual Weed Control (%) - 20 DAA DIGSA Obs,DIGSA; 35 gae/ha,38%
same,CIRAR Obs (observed value),CIRAR; 2.2 gae/ha,25%
same,CIRAR Obs (observed value),CIRAR; 4.4 gae/ha,30% and 25%
same,CIRAR Obs (observed value),CIRAR; 8.8 gae/ha,30%
same,CIRAR Obs (observed value),CIRAR; 17.5 gae/ha,30%
same,Visual Weed Control (%) - 20 DAA IPOHE Obs,IPOHE; 4.38 gae/ha,0%
same,Visual Weed Control (%) - 20 DAA IPOHE Obs,IPOHE; 8.75 gae/ha,10%
same,Visual Weed Control (%) - 20 DAA IPOHE Obs,IPOHE; 17.5 gae/ha,25%
same,Visual Weed Control (%) - 21 DAA CYPIR Obs,CYPIR; 4.38 gae/ha,75%
same,Visual Weed Control (%) - 20 DAA CYPIR Obs,CYPIR; 8.75 gae/ha,35%
same,Visual Weed Control (%) - 21 DAA CYPIR Obs,CYPIR; 8.75 gae/ha,85%
same,Visual Weed Control (%) - 20 DAA ECHOR Obs,ECHOR; 4.38 gae/ha,10%
same,Visual Weed Control (%) - 20 DAA ECHOR Obs,ECHOR; 8.75 gae/ha,20%
same,Visual Weed Control (%) - 22 DAA ECHOR Obs,ECHOR; 8.75 gae/ha,25%
same,Visual Weed Control (%) - 20 DAA ECHOR Obs,ECHOR; 17.5 gae/ha,50%
same,Visual Weed Control (%) - 22 DAA ECHOR Obs,ECHOR; 17.5 gae/ha,45%
same,pest or weed control at 8 g/ha,"ECHOR; Echinochloa oryzoides, 456 h, read-out: Visual Weed Control (%) Obs, 19 DAA, 8 gae/ha",10%
same,pest or weed control at 16 g/ha,"ECHOR; Echinochloa oryzoides, 456 h, read-out: Visual Weed Control (%) Obs, 19 DAA, 16 gae/ha",25%
same,pest or weed control at 32 g/ha,"ECHOR; Echinochloa oryzoides, 456 h, read-out: Visual Weed Control (%) Obs, 19 DAA, 32 gae/ha",35%
same,pest or weed control at 4.38 g/ha,"ECHOR; Echinochloa oryzoides, 480 h, read-out: Visual Weed Control (%) Obs, 20 DAA, 4.38 gae/ha",25%
same,pest or weed control at 8.75 g/ha,"ECHOR; Echinochloa oryzoides, 480 h, read-out: Visual Weed Control (%) Obs, 20 DAA, 8.75 gae/ha",20%
same,pest or weed control at 17.5 g/ha,"ECHOR; Echinochloa oryzoides, 480 h, read-out: Visual Weed Control (%) Obs, 20 DAA, 17.5 gae/ha",30%
same,pest or weed control at 35 g/ha,"ECHOR; Echinochloa oryzoides, 480 h, read-out: Visual Weed Control (%) Obs, 20 DAA, 35 gae/ha",73%
same,pest or weed control at 4.38 g/ha,"ECHOR; Echinochloa oryzoides, 504 h, read-out: Visual Weed Control (%) Obs, 21 DAA, 4.38 gae/ha",15%
same,pest or weed control at 8.75 g/ha,"ECHOR; Echinochloa oryzoides, 504 h, read-out: Visual Weed Control (%) Obs, 21 DAA, 8.75 gae/ha",15%
same,pest or weed control at 17.5 g/ha,"ECHOR; Echinochloa oryzoides, 504 h, read-out: Visual Weed Control (%) Obs, 21 DAA, 17.5 gae/ha",20%
same,pest or weed control at 8.75 g/ha,"ECHOR; Echinochloa oryzoides, 528 h, read-out: Visual Weed Control (%) Obs, 22 DAA, 8.75 gae/ha",35%
same,pest or weed control at 17.5 g/ha,"ECHOR; Echinochloa oryzoides, 528 h, read-out: Visual Weed Control (%) Obs, 22 DAA, 17.5 gae/ha",30%
same,pest or weed control at 8.75 g/ha,"ECHOR; Echinochloa oryzoides, 600 h, read-out: Visual Weed Control (%) Obs, 25 DAA, 8.75 gae/ha",85%
same,pest or weed control at 17.5 g/ha,"ECHOR; Echinochloa oryzoides, 600 h, read-out: Visual Weed Control (%) Obs, 25 DAA, 17.5 gae/ha",90%
same,Visual Weed Control (%) - 20 DAA LEFCH Obs,LEFCH [2]; 4.38 gae/ha,0%
same,Visual Weed Control (%) - 20 DAA LEFCH Obs,LEFCH [2]; 8.75 gae/ha,20%
same,Visual Weed Control (%) - 19 DAA LEFCH Obs,LEFCH [2]; 16 gae/ha,58%
same,Visual Weed Control (%) - 21 DAA ECHCG Obs,ECHCG [3]; 4.38 gae/ha,48%
same,Visual Weed Control (%) - 23 DAA ECHCG Obs,ECHCG [3]; 4.38 gae/ha,40%
same,Visual Weed Control (%) - 21 DAA ECHCG Obs,ECHCG [3]; 8.75 gae/ha,55%
same,Visual Weed Control (%) - 23 DAA ECHCG Obs,ECHCG [3]; 8.75 gae/ha,55%
same,Visual Weed Control (%) - 21 DAA ECHCG Obs,"ECHCG [3]; Compound A Benzyl Ester rate printed '—' (second line), Fluroxypyr MHE 0 gae/ha",85%
same,Visual Weed Control (%) - 21 DAA ECHCG Obs,"ECHCG [3]; Compound A Benzyl Ester rate printed '—', Fluroxypyr MHE 0 gae/ha",10%
same,Visual Weed Control (%) - 21 DAA ECHCG Obs,ECHCG [4]; 4.38 gae/ha,0%
same,Visual Weed Control (%) - 22 DAA ECHCG Obs,ECHCG [4]; 4.38 gae/ha,30%
same,Visual Weed Control (%) - 21 DAA ECHCG Obs,ECHCG [4]; 8.75 gae/ha,0%
same,Visual Weed Control (%) - 22 DAA ECHCG Obs,ECHCG [4]; 8.75 gae/ha,45%
same,Visual Weed Control (%) - 21 DAA ECHCG Obs,ECHCG [4]; 17.5 gae/ha,25%
same,Visual Weed Control (%) Obs,"ECHCG [4]; 19 DAA, 8 gae/ha",35%
same,Visual Weed Control (%) Obs,"ECHCG [4]; 19 DAA, 16 gae/ha",85%
same,Visual Weed Control (%) Obs,"ECHCG [4]; 20 DAA, 4.38 gae/ha",15%
same,Visual Weed Control (%) Obs,"ECHCG [4]; 20 DAA, 8.75 gae/ha",20%
same,Visual Weed Control (%) Obs,"ECHCG [4]; 20 DAA, 17.5 gae/ha",40%
same,Visual Weed Control (%) Obs,"ECHCG [4]; 22 DAA, 4.38 gae/ha",30%
same,Visual Weed Control (%) Obs,"ECHCG [4]; 22 DAA, 8.75 gae/ha",45%
same,Visual Weed Control (%) Obs,"ECHCG [4]; 22 DAA, 17.5 gae/ha",90%
same,Visual Weed Control (%) Obs,"SCPMA; 20 DAA, 35 gae/ha",0%
same,Visual Weed Control (%) Obs,"SCPMA; 20 DAA, 70 gae/ha",0%
same,Visual Weed Control (%) Obs,"SCPMA; 21 DAA, 4.38 gae/ha",0%
same,Visual Weed Control (%) Obs,"SCPMA; 21 DAA, 8.75 gae/ha",0%
same,Visual Weed Control (%) Obs,"SCPMA; 21 DAA, 17.5 gae/ha",0%
same,Visual Weed Control (%) Obs,"SCPMA; 22 DAA, 4.38 gae/ha",0%
same,Visual Weed Control (%) Obs,"SCPMA; 22 DAA, 8.75 gae/ha",0%
same,Visual Weed Control (%) Obs,"SCPMA; 22 DAA, 17.5 gae/ha",0%
